Assay [1] concerns S2. The assay can be described thus: Induction of luciferase protein trans-splicing in Drosophila melanogaster S2 cells transfected with N-luc and C-luc assessed as increase in luciferase activity at 100 nM after 4 hrs by Western blot analysis. In kind it is functional, cell-based. On the technique in general: A western blot detects proteins with antibodies after separation by electrophoresis.

The test system of assay [2] is S2. Description: Induction of luciferase protein trans-splicing in Drosophila melanogaster S2 cells transfected with N-luc and C-luc assessed as increase in luciferase activity after 4 hrs by Western blot analysis. In kind it is functional, cell-based.
The subject of assay [3] is S2. The assay can be described thus: Induction of luciferase protein trans-splicing in Drosophila melanogaster S2 cells transfected with N-luc C1A mutant and C-luc N45A mutant assessed as increase in luciferase activity at 100 nM after 4 hrs by Western blot analysis. The assay is classed as functional, cell-based.
Assay [4] deals with S2. The assay can be described thus: Induction of luciferase protein trans-splicing in Drosophila melanogaster S2 cells transfected with N-luc and C-luc assessed as increase in luciferase activity at 100 nM after 4 hrs at 25 degC. The assay is classed as functional, cell-based.
Assay [5] is described as follows: Induction of luciferase protein trans-splicing in Drosophila melanogaster S2 cells transfected with N-luc and C-luc assessed as increase in luciferase activity at 100 nM after 4 hrs at 21 degC relative to control. The assay is classed as functional.
A short description of assay [6]: Induction of luciferase protein trans-splicing in Drosophila melanogaster S2 cells transfected with N-luc and C-luc assessed as increase in luciferase activity at 100 nM after 4 hrs at 28 degC relative to control. The assay is classed as functional.
Assay [7] in a line: Induction of luciferase protein trans-splicing in Drosophila melanogaster S2 cells transfected with N-luc and C-luc and FRB assessed as increase in luciferase activity at 100 nM after 4 hrs relative to control. In kind it is functional.
Assay [8] is described as follows: Induction of luciferase protein trans-splicing in Drosophila melanogaster S2 cells transfected with N-luc and C-luc and 2 copies of FRB assessed as increase in luciferase activity at 100 nM after 4 hrs relative to control. The assay is classed as functional.
Assay [9] in a line: Induction of luciferase protein trans-splicing in Drosophila melanogaster S2 cells transfected with N-luc and C-luc and 3 copies of FRB assessed as increase in luciferase activity at 100 nM after 4 hrs relative to control. In kind it is functional.
The test system of assay [10] is S2. The assay can be described thus: Induction of luciferase protein trans-splicing in Drosophila melanogaster S2 cells transfected with N-luc and C-lucFRB2 assessed as increase in luciferase activity at 100 nM after 4 hrs. As to conditions: TDE = time-dependent effect. The assay is classed as functional, cell-based.
The subject of assay [11] is S2. The assay can be described thus: Induction of luciferase protein trans-splicing in Drosophila melanogaster S2 cells transfected with N-luc and C-lucFRB2 assessed as increase in luciferase activity pretreated with ascomycin for 15 mins measured at 100 nM after 4 hrs. In kind it is functional, cell-based.
Assay [12] concerns S2. The assay can be described thus: Induction of luciferase protein trans-splicing in Drosophila melanogaster S2 cells transfected with N-luc and C-lucFRB2 assessed as increase in luciferase activity pretreated with ascomycin for 60 mins measured at 100 nM after 4 hrs. In kind it is functional, cell-based.
Assay [13] concerns Drosophila melanogaster. Description: Activation of luciferase in Drosophila melanogaster containing genomically integrated luciferase CPS at 100 uM. In kind it is functional, organism-based.
Assay [14] relates to Drosophila melanogaster. The assay can be described thus: Activation of luciferase in Drosophila melanogaster containing genomically integrated luciferase CPS at 100 uM by Western blot method. The assay is classed as functional, organism-based.

Active and inactive are the calls of the source. The calls are words filed in the database; no cut-off is given here.

These results are taken from ChEMBL document CHEMBL1221195, “Post-translational enzyme activation in an animal via optimized conditional protein splicing” (2007).

Turning to `CO[C@H]1[C@@H](O)[C@H](C)C[C@H](C)/C=C/C=C/C=C(\C)[C@@H](c2c[nH]c3c(C)cccc23)C[C@@H]2CC[C@@H](C)[C@@](O)(O2)C(=O)C(=O)N2CCCC[C@H]2C(=O)O[C@H]([C@H](C)C[C@@H]2CC[C@@H](O)[C@H](OC)C2)C[C@H](O)[C@H](C)/C=C(\C)[C@H]1O`, in the assay on S2 [1], the result was inactive.
Consider `CO[C@H]1C[C@@H]2CC[C@@H](C)[C@@](O)(O2)C(=O)C(=O)N2CCCC[C@H]2C(=O)O[C@H]([C@H](C)C[C@@H]2CC[C@@H](O)[C@H](OC)C2)CC(=O)[C@H](C)/C=C(\C)[C@@H](O)[C@@H](OC)C(=O)[C@H](C)C[C@H](C)/C=C/C=C/C=C/1C` [SIROLIMUS], for which the result in the assay with S2 [1], in the assay on S2 [4], in the assay on Drosophila melanogaster [13] and in the assay with Drosophila melanogaster [14] was Active. Besides, the values for the Activity result in the assay with S2 [2] and in the assay with S2 [10] were “Dose-dependent effect” and “tde”, respectively. The result in the assay on S2 [3], in the assay on S2 [11] and with S2 [12] was inactive. Also, the Ratio in assay [5] amounted to 6; in assay [6], 22; in [7], 15; in [8], 50; in assay [9], 75.
